Measurements taken from patent US20230094176A1, “COMPOUNDS AND METHODS FOR IMPROVING IMPAIRED ENDOGENOUS FIBRINOLYSIS USING HISTONE DEACETYLASE INHIBITORS” (Cereno Scientific AB, priority 2011, published 2023).
Read-outs that look alike come from different tables or passages of the source.

How the values were obtained:
[1] = test system: TNF-alpha suppressed t-PA production in HUVECs; test: Counter-acting TNF-alpha (0.1 ng/ml) suppression of t-PA in HUVEC; assay type: cell-based, human; conditions: for concentration completely normalizing TNF-alpha suppressed t-PA production / concentration partly reversing TNF-alpha suppression of t-PA production: TNF-alpha 0.1 ng/ml 48 h, compound last 24 h
Method: Human umbilical vein endothelial cells (HUVECs) were prepared and cultured as described in Example 1. Confluent HUVECs were exposed to low concentrations of TNF-alpha (0.1 ng/ml) (Sigma-Aldrich) for 24 h. Thereafter, medium was replaced by fresh EGM-2 containing TNF-alpha and low concentrations of belinostat (10 nM to 300 nM) and incubated for 24 h. After 24 h, cells and conditioned media were harvested. Total RNA was prepared and RNA and secreted protein quantified as in Example 1.
We have previously shown that proinflammatory cytokines e.g. TNF-alpha and IL-1b suppress t-PA production in endothelial cells. We then investigated if VPA could reverse a TNF-alpha suppressed t-PA response. Human umbilical vein endothelial cells (HUVECs) were prepared by collagenase treatment of fresh umbilical cords (Jaffe, E. A., et al. J Clin Invest 52, 2745-2756 (1973)) obtained from the maternity ward of the Sahlgrenska University hospital, Gothenburg, Sweden. Cells were cultured in EGM-2 medium (Lonza, Basel, Switzerland) and all experiments were performed in passage 1 of subcultivation. Confluent HUVECs were pre-treated with 0.1 ng/ml human recombinant TNF-alpha (Sigma-Aldrich) for 24 hours then exposed to optimal concentrations VPA in complete medium. After incubation with the VPA and TNF-alpha for an additional 24 hours, cells and conditioned media were harvested.
Total RNA was prepared using RNeasy Mini RNA kit (Qiagen, Hilden, Germany) and genomic DNA was removed using RNase-free DNase I set (Qiagen). Levels of t-PA mRNA were analyzed with real-time RT-PCR, performed on an Applied Biosystems 7500 Fast Real-Time PCR System using cDNA and Taqman reagents obtained from Applied Biosystems (Foster City, Calif., USA). Hypoxanthine phosphoribosyl transferase (HPRT, Assay number Hs99999909_m1, Applied Biosystems) was used as endogenous internal standard.
Endothelial cells in culture are known to constitutively secrete the majority of synthesized t-PA making conditioned media a suitable source for quantification of t-PA protein. Conditioned medium from cell cultures was collected, centrifuged (10,000×g, 10 min, 4° C.) to remove cell debris, transferred to fresh tubes and stored at −70° C. Concentrations of t-PA antigen in conditioned media were determined using the commercially available TriniLize t-PA antigen ELISA (Trinity Biotech, Bray, Ireland) according to the manufacturer's protocol.

[2] = test system: patients with a recent major atherothrombotic cardiovascular event; test: Clinical outcome study in high-risk patients for prevention of recurrent events; assay type: in vivo, human; conditions: for annual absolute event rate lowered to: annual risk estimated approximately 7%
Method: The first clinical outcome study is performed in high-risk patients who have experienced a recent major atherothrombotic cardiovascular event (myocardial infarction or ischemic stroke) to investigate the preventive effect of Vorinostat treatment on the risk for recurrent events. The annual risk for a recurrent atherothrombotic event in the investigated population is estimated to approximately 7%. Patients are randomized in a parallel study design to receive double-blind oral treatment with 10 mg Vorinostat or placebo daily, in addition to optimal conventional treatment. The event rate is monitored by Kaplan-Meyer statistics. The primary efficacy endpoint is the composite measure of either mortality, or non-fatal myocardial infarction or ischemic stroke. The study is event-driven to a total of 180 events in the placebo group.
The first clinical outcome study is performed in high-risk patients who have experienced a recent major atherothrombotic cardiovascular event (myocardial infarction or ischemic stroke) to investigate the preventive effect of VPA treatment on the risk for recurrent events. Signs of a low-grade inflammatory condition is an inclusion criterion, defined as an elevated serum level of high-sensitivity C-reactive protein (hs-CRP) >3 mg/L. The annual risk for a recurrent atherothrombotic event in the investigated population is estimated to approximately 7%. Patients are randomized in a parallel study design to receive double-blind oral treatment with 100 mg valproic acid or placebo twice daily, in addition to optimal conventional treatment. The event rate is monitored by Kaplan-Meyer statistics. The primary efficacy endpoint is the composite measure of either mortality, or non-fatal myocardial infarction or ischemic stroke. The study is event-driven to a total of 180 events in the placebo group. […] Thus, this study confirms the clinical efficacy and feasibility of using VPA for secondary prevention of cardiovascular events.

[3] = test system: healthy subjects with an increased risk for atherothrombotic cardiovascular events; test: Primary preventive clinical outcome study; assay type: in vivo, human
Method: The third outcome study investigates the primary preventive effect of Vorinostat in healthy subjects with an increased risk for atherothrombotic cardiovascular events i.e. cigarette smoking, abnormal blood lipid levels, hypertension, diabetes, abdominal obesity, low-grade inflammation and/or atherosclerosis. Subjects are randomized to double-blind oral treatment with 10 mg Vorinostat or placebo daily. The risk of a primary atherothrombotic event is followed annually. The primary composite efficacy endpoint is mortality, or non-fatal myocardial infarction or ischemic stroke. The study is event-driven to a total of 180 events in the placebo group.
The third outcome study investigates the primary preventive effect of VPA in healthy subjects with an increased risk for atherothrombotic cardiovascular events due to low-grade inflammation. The inflammatory activation is clinically defined as an elevated serum level of high-sensitivity C-reactive protein (hs-CRP) >3 mg/L. Subjects are randomized to double-blind oral treatment with 100 mg valproic acid or placebo twice daily. The risk of a primary atherothrombotic event is followed annually. The primary composite efficacy endpoint is mortality, or non-fatal myocardial infarction or ischemic stroke. The study is event-driven to a total of 180 events in the placebo group. In this population the annual event rate is reduced by 30% from 1.5 to 1%.

[4] = cited from earlier work
[5] = doses as for risk reduction (Vorinostat 10 mg, Belinostat 65 mg, Givinostat 2 mg, Panobinostat 0.5 mg, PCI-24781 2 mg, JNJ-26481585 0.2 mg, Mocetinostat 2 mg, SB939 0.4 mg, CXD101 10 mg daily)
[6] = long-term, daily oral dose: Vorinostat 10 mg, Belinostat 65 mg, Givinostat 2 mg, Panobinostat 0.5 mg, PCI-24781 2 mg, JNJ-26481585 0.2 mg, Mocetinostat 2 mg, SB939 0.4 mg, CXD101 10 mg
[7] = daily oral dose: Vorinostat 10 mg, Belinostat 65 mg, Givinostat 2 mg, Panobinostat 0.5 mg, PCI-24781 2 mg, JNJ-26481585 0.2 mg, Mocetinostat 2 mg, SB939 0.4 mg, CXD101 10 mg
[8] = maximum plasma concentration when the MTD is administered to humans
[9] = HUVEC, present-tense Examples 12-18
[10] = hs-CRP >3 mg/L, 100 mg valproic acid orally twice daily

SMILES | annual absolute event rate lowered to [2, 5] | reduction of risk for recurrent atherothrombotic events, in addition to conventional therapy [2, 6] | annual event rate with treatment (reduced from 1.5) [3, 7] [%] | reduction of annual event rate [3, 7] [%] | Cmax [4, 8] [nM] | concentration completely normalizing TNF-alpha suppressed t-PA production [1, 9] [nM] | concentration partly reversing TNF-alpha suppression of t-PA production [1, 9] [nM] | further results
O=C(/C=C/c1cccc(S(=O)(=O)Nc2ccccc2)c1)NO [Belinostat] | approximately 5% | approximately 30% | 1 | 30 | 4000 | – | – | concentration completely normalizing TNF-alpha suppressed t-PA production ([1]; HUVEC): 200 nM; concentration partly reversing TNF-alpha suppression of t-PA production ([1]; HUVEC): 50 nM; concentrations needed to off-set the inhibition of TNF-alpha on t-PA expression ([1]; TNF-alpha treated endothelium): 0.05 to 0.2 µM; MTD ([4]; bidaily, oncology treatment or trials): 1000 mg bidaily; Cmax (ng/ml) [4, 8]: ~1400 ng/mL
Nc1ccccc1NC(=O)c1ccc(CNc2nccc(-c3cccnc3)n2)cc1 [Mocetinostat] | approximately 5% | approximately 30% | 1 | 30 | – | 300 | 10 | Cmax ([4]; in vivo): 500 nM; Cmax (ng/ml) ([4]; in vivo): 200 ng/mL
CCN(CC)Cc1ccc2cc(COC(=O)Nc3ccc(C(=O)NO)cc3)ccc2c1.Cl [Givinostat] | approximately 5% | approximately 30% | 1 | 30 | 650 | 100 | 30 | MTD ([4]; humans, literature): 200 mg; Cmax (ng/ml) [4, 8]: 300 ng/mL; MTD ([4]; once daily, in healthy volunteers): 200 mg once daily
Cc1nn(C)cc1CN1CCC(c2ccc(C(=O)Nc3ccccc3N)cc2)CC1 [CXD101] | approximately 5% | approximately 30% | 1 | 30 | – | 300 | 10 | –
Cn1cc(CNCC2CCN(c3ncc(C(=O)NO)cn3)CC2)c2ccccc21 [JNJ-26481585, N-hydroxy-2-(4-((((1-methyl-1H-indol-3-yl)methyl)amino)methyl)piperidin-1-yl)pyrimidine-5-carboxamide] | approximately 5% | approximately 30% | 1 | 30 | – | 5 | 1 | –
CN(C)Cc1c(C(=O)NCCOc2ccc(C(=O)NO)cc2)oc2ccccc12 [PCI-24781, 3-(dimethylaminomethyl)-N-[2-[4-(hydroxycarbamoyl)phenoxy]ethyl]-1-benzofuran-2-carboxamide] | approximately 5% | approximately 30% | 1 | 30 | – | 200 | 10 | –
O=C(CCCCCCC(=O)Nc1ccccc1)NO [Vorinostat] | approximately 5% | approximately 30% | 1 | 30 | 1100 | – | – | concentration completely normalizing TNF-alpha suppressed t-PA production ([1]; HUVEC): 300 nM; concentration partly reversing TNF-alpha suppression of t-PA production ([1]; HUVEC): 50 nM; MTD ([4]; humans, literature): 200 mg b.i.d; Cmax (ng/ml) ([4]; in vivo): 300 ng/mL; MTD ([4]; once daily, oncology treatment or trials): 400 mg once daily
CCCC(CCC)C(=O)O [VPA, valproic acid] | – | – | – | – | – | – | – | concentration achieving complete normalization of TNF-alpha suppressed t-PA mRNA ([1]; HUVEC, TNF-alpha 0.1 ng/ml, VPA additional 24 h): 0.35 mM; concentrations needed to reverse the effect of TNF-alpha on t-PA expression ([1]; TNF-suppressed cells): below 0.35 mM; reduction of risk for recurrent atherothrombotic events, in addition to conventional therapy [2, 10]: approximately 30%; annual absolute event rate lowered to [2, 10]: approximately 5%; annual event rate with treatment (reduced from 1.5) [3, 10]: 1%; reduction of annual event rate [3, 10]: 30%
